Measured values published in the supplement of paper PMC10307832.

Columns and labels:
Experiment in all cases: relative viability (nuclei count vs DMSO), 5 days (fraction); higher = more cells survive
Avagacestat + Vorinostat = compound: NC(=O)[C@@H](CCC(F)(F)F)N(Cc1ccc(-c2ncon2)cc1F)S(=O)(=O)c1ccc(Cl)cc1 [Avagacestat] + O=C(CCCCCCC(=O)Nc1ccccc1)NO [Vorinostat] (partner 1 µM)
Method in brief: (§1)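 Relative viability is defined as nuclei in treated wells over nuclei in vehicle wells. Duplicate plates were run and medians reported. Lung cancer cell lines in 1536-well plates were dosed by pin tool one day after seeding, with one drug or with a fixed anchor-drug dose plus five library-drug doses (not always all listed) in √10 steps, and nuclei were counted after 5 days.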

Avagacestat + Pemetrexed = compound: NC(=O)[C@@H](CCC(F)(F)F)N(Cc1ccc(-c2ncon2)cc1F)S(=O)(=O)c1ccc(Cl)cc1 [Avagacestat] + Nc1nc2[nH]cc(CCc3ccc(C(=O)N[C@@H](CCC(=O)O)C(=O)O)cc3)c2c(=O)[nH]1 [Pemetrexed] (partner 0.2 µM)
Method in brief: as §1

Avagacestat + Dasatinib = compound: NC(=O)[C@@H](CCC(F)(F)F)N(Cc1ccc(-c2ncon2)cc1F)S(=O)(=O)c1ccc(Cl)cc1 [Avagacestat] + Cc1nc(Nc2ncc(C(=O)Nc3c(C)cccc3Cl)s2)cc(N2CCN(CCO)CC2)n1 [Dasatinib] (partner 0.075 µM)
Method in brief: as §1

[1] = compound: NC(=O)[C@@H](CCC(F)(F)F)N(Cc1ccc(-c2ncon2)cc1F)S(=O)(=O)c1ccc(Cl)cc1 [Avagacestat] + CC(=O)c1c(C)c2cnc(Nc3ccc(N4CCNCC4)cn3)nc2n(C2CCCC2)c1=O [Palbociclib] (partner 0.5 µM)
Method in brief: as §1

Row | Cell Line | relative viability (Avagacestat + Vorinostat; first compound 0.08 µM) | relative viability (Avagacestat + Vorinostat; first compound 0.253 µM) | relative viability (Avagacestat + Vorinostat; first compound 0.8 µM) | relative viability (Avagacestat + Vorinostat; first compound 2.53 µM) | relative viability (Avagacestat + Vorinostat; first compound 8 µM) | relative viability (Avagacestat + Pemetrexed; first compound 0.08 µM) | relative viability (Avagacestat + Pemetrexed; first compound 0.253 µM) | relative viability (Avagacestat + Pemetrexed; first compound 0.8 µM) | relative viability (Avagacestat + Pemetrexed; first compound 2.53 µM) | relative viability (Avagacestat + Pemetrexed; first compound 8 µM) | relative viability (Avagacestat + Dasatinib; first compound 0.08 µM) | relative viability (Avagacestat + Dasatinib; first compound 0.253 µM) | relative viability (Avagacestat + Dasatinib; first compound 0.8 µM) | relative viability (Avagacestat + Dasatinib; first compound 2.53 µM) | relative viability (Avagacestat + Dasatinib; first compound 8 µM) | relative viability ([1]; first compound 0.08 µM) | relative viability ([1]; first compound 0.253 µM) | relative viability ([1]; first compound 0.8 µM) | relative viability ([1]; first compound 2.53 µM) | relative viability ([1]; first compound 8 µM)
1 | NCI-H441 | 0.991 | 0.932 | 0.899 | 0.761 | 0.595 | 0.269 | 0.252 | 0.272 | 0.271 | 0.298 | 0.518 | 0.471 | 0.541 | 0.532 | 0.454 | 0.242 | 0.214 | 0.249 | 0.229 | 0.218
2 | NCI-H460 | 1.37 | 0.69 | 0.828 | 0.554 | 0.57 | 0.0657 | 0.0554 | 0.0635 | 0.0567 | 0.0624 | 0.625 | 0.59 | 0.747 | 0.402 | 0.475 | 0.128 | 0.104 | 0.14 | 0.146 | 0.131
3 | NCI-H520 | 0.8 | 0.767 | 0.773 | 0.637 | 0.639 | 0.792 | 0.801 | 0.844 | 0.703 | 0.559 | 0.267 | 0.16 | 0.158 | 0.168 | 0.162 | 0.21 | 0.23 | 0.198 | 0.194 | 0.201
4 | NCI-H522 | 1.04 | 1.01 | 0.928 | 0.866 | 0.792 | 0.933 | 1.27 | 0.774 | 1.04 | 1.07 | 0.942 | 0.886 | 0.861 | 0.927 | 1.07 | 1.13 | 1.2 | 1.08 | 0.954 | 0.946
5 | NCI-H647 | 0.743 | 0.64 | 0.579 | 0.597 | 0.567 | 0.171 | 0.171 | 0.186 | 0.149 | 0.15 | 0.195 | 0.188 | 0.232 | 0.118 | 0.147 | 0.456 | 0.497 | 0.486 | 0.341 | 0.35
6 | NCI-H650 | 0.439 | 0.537 | 0.56 | 0.455 | 0.435 | 1.05 | 1.04 | 1.04 | 0.944 | 0.868 | 0.499 | 0.398 | 0.481 | 0.456 | 0.451 | 0.313 | 0.361 | 0.314 | 0.275 | 0.308
7 | NCI-H661 | 0.845 | 0.98 | 0.827 | 0.784 | 0.785 | 0.953 | 1.01 | 0.92 | 0.86 | 0.909 | 1.05 | 0.962 | 1.07 | 0.891 | 0.852 | 0.415 | 0.343 | 0.428 | 0.386 | 0.419
8 | NCI-H838 | 0.737 | 0.769 | 0.788 | 0.672 | 0.705 | 0.263 | 0.271 | 0.28 | 0.238 | 0.243 | 0.293 | 0.285 | 0.328 | 0.309 | 0.253 | 0.221 | 0.244 | 0.226 | 0.208 | 0.215
9 | NCI-H1355 | 0.702 | 0.637 | 0.628 | 0.527 | 0.542 | 1.15 | 1.15 | 1.21 | 0.996 | 0.943 | 0.688 | 0.754 | 0.687 | 0.557 | 0.62 | 0.441 | 0.418 | 0.353 | 0.351 | 0.333
10 | NCI-H1395 | 0.64 | 0.519 | 0.719 | 0.429 | 0.63 | 0.866 | 0.954 | 1.08 | 0.798 | 0.696 | 0.412 | 0.405 | 0.416 | 0.372 | 0.442 | 0.675 | 0.64 | 0.594 | 0.486 | 0.593
11 | NCI-H1437 | 1.03 | 1.12 | 1.11 | 0.893 | 0.728 | 0.336 | 0.346 | 0.329 | 0.301 | 0.298 | 0.283 | 0.278 | 0.346 | 0.291 | 0.211 | 0.329 | 0.341 | 0.361 | 0.306 | 0.294
12 | NCI-H1650 | 0.593 | 0.692 | 0.51 | 0.599 | 0.67 | 0.357 | 0.387 | 0.365 | 0.381 | 0.382 | 0.37 | 0.35 | 0.272 | 0.304 | 0.346 | 0.318 | 0.241 | 0.406 | 0.331 | 0.351
13 | NCI-H1651 | 0.583 | 0.566 | 0.681 | 0.52 | 0.567 | 0.71 | 0.591 | 0.731 | 0.574 | 0.559 | 0.477 | 0.426 | 0.454 | 0.38 | 0.342 | 0.521 | 0.51 | 0.569 | 0.46 | 0.504
14 | NCI-H1666 | 1.17 | 1.23 | 1.28 | 1.12 | 1.09 | 0.938 | 0.871 | 0.877 | 0.822 | 0.889 | 0.819 | 0.739 | 0.876 | 0.783 | 0.653 | 0.69 | 0.699 | 0.642 | 0.714 | 0.644
15 | NCI-H1734 | 0.876 | 0.901 | 0.829 | 0.761 | 0.824 | 0.437 | 0.398 | 0.401 | 0.426 | 0.434 | 0.545 | 0.542 | 0.48 | 0.471 | 0.432 | 0.384 | 0.335 | 0.399 | 0.301 | 0.328
16 | NCI-H1755 | 0.884 | 0.782 | 0.891 | 0.666 | 0.791 | 0.541 | 0.478 | 0.383 | 0.372 | 0.383 | 0.445 | 0.357 | 0.234 | 0.389 | 0.334 | 0.444 | 0.438 | 0.492 | 0.389 | 0.463
